Laboratory results from ChEMBL document CHEMBL2203234, “Optimisation of imidazole compounds as selective TAAR1 agonists: discovery of RO5073012” (Bioorg Med Chem Lett, 2012).

Tests used:
[1] = target: Platelet-activating factor receptor (Homo sapiens) (UniProt P25105); assay: Inhibition of human PAF receptor at 10 uM by CEREP assay
[2] = Inhibition of SKca channel at 10 uM by CEREP assay
[3] = target: Beta-1 adrenergic receptor (Homo sapiens) (UniProt P08588); assay: Inhibition of human beta 1 adrenergic receptor at 10 uM by CEREP assay
[4] = target: Muscarinic acetylcholine receptor M4 (Homo sapiens) (UniProt P08173); assay: Inhibition of human M4 receptor at 10 uM by CEREP assay
[5] = Inhibition of central BZD receptor at 10 uM by CEREP assay
Homo sapiens = species on record: Homo sapiens; assay: Inhibition of human I1 receptor at 10 uM by CEREP assay
[6] = Inhibition of K-ATP channel at 10 uM by CEREP assay
[7] = target: Cannabinoid receptor 1 (Homo sapiens) (UniProt P21554); assay: Inhibition of human CB1 receptor at 10 uM by CEREP assay
[8] = target: Neurotensin receptor type 1 (Homo sapiens) (UniProt P30989); assay: Inhibition of human NT1 receptor at 10 uM by CEREP assay
[9] = target: Endothelin-1 receptor (Homo sapiens) (UniProt P25101); assay: Inhibition of human ETA receptor at 10 uM by CEREP assay
[10] = target: Neuromedin-K receptor (Homo sapiens) (UniProt P29371); assay: Inhibition of human Nk3 receptor at 10 uM by CEREP assay
[11] = target: C-X-C chemokine receptor type 4 (Homo sapiens) (UniProt P61073); assay: Inhibition of human CXCR4 receptor at 10 uM by CEREP assay
[12] = target: B1 bradykinin receptor (Homo sapiens) (UniProt P46663); assay: Inhibition of human B1 receptor at 10 uM by CEREP assay
[13] = target: Thyrotropin-releasing hormone receptor (Homo sapiens) (UniProt P34981); assay: Inhibition of TRH receptor at 10 uM by CEREP assay
[14] = target: Acetylcholinesterase (Homo sapiens) (UniProt P22303); assay: Inhibition of human Acetylcholinesterase at 10 uM by CEREP assay
[15] = target: Pituitary adenylate cyclase-activating polypeptide type I receptor (Homo sapiens) (UniProt P41586); assay: Inhibition of human PAC1 receptor at 10 uM by CEREP assay
[16] = target: Sodium-dependent dopamine transporter (Homo sapiens) (UniProt Q01959); assay: Inhibition of human DA transporter at 10 uM by CEREP assay
[17] = target: 5-hydroxytryptamine receptor 6 (Homo sapiens) (UniProt P50406); assay: Inhibition of human 5-HT6 receptor at 10 uM by CEREP assay
[18] = Inhibition of NMDA receptor PCP site at 10 uM by CEREP assay
[19] = target: 5-hydroxytryptamine receptor 5A (Homo sapiens) (UniProt P47898); assay: Inhibition of human 5-HT5A receptor at 10 uM by CEREP assay
[20] = target: Neuronal acetylcholine receptor; alpha4/beta2 (Homo sapiens) (UniProt P17787+P43681); assay: Inhibition of neuronal alpha4beta2 nAChR at 10 uM by CEREP assay; assay type: protein-complex assay
[21] = target: cGMP-specific 3',5'-cyclic phosphodiesterase (Canis lupus familiaris) (UniProt O77746); assay: Inhibition of human PDE5 at 10 uM by CEREP assay
[22] = target: 5-hydroxytryptamine receptor 1B (Homo sapiens) (UniProt P28222); assay: Inhibition of 5-HT1B receptor at 10 uM by CEREP assay
[23] = target: C-C chemokine receptor type 1 (Homo sapiens) (UniProt P32246); assay: Inhibition of human CCR1 receptor at 10 uM by CEREP assay
[24] = target: 5-hydroxytryptamine receptor 7 (Homo sapiens) (UniProt P34969); assay: Inhibition of human 5-HT7 receptor at 10 uM by CEREP assay
CHL = assay: Selectivity ratio of Ki for human adrenergic alpha2A receptor expressed in CHL cells to Ki for human TAAR1 receptor; assay type: cell-based
[25] = target: Sodium-dependent noradrenaline transporter (Homo sapiens) (UniProt P23975); assay: Inhibition of human NE transporter at 10 uM by CEREP assay
[26] = target: Cholecystokinin receptor type A (Homo sapiens) (UniProt P32238); assay: Inhibition of human CCKA receptor at 10 uM by CEREP assay
[27] = Inhibition of alpha 2 adrenergic receptor at 10 uM by CEREP assay
[28] = target: Calcitonin gene-related peptide type 1 receptor (Homo sapiens) (UniProt Q16602); assay: Inhibition of human CGRP receptor at 10 uM by CEREP assay
[29] = target: Motilin receptor (Homo sapiens) (UniProt O43193); assay: Inhibition of human Motilin receptor at 10 uM by CEREP assay
[30] = target: D(1B) dopamine receptor (Homo sapiens) (UniProt P21918); assay: Inhibition of human D5 receptor at 10 uM by CEREP assay
[31] = target: D(1A) dopamine receptor (Homo sapiens) (UniProt P21728); assay: Inhibition of human D1 receptor at 10 uM by CEREP assay
[32] = Inhibition of K+v channel at 10 uM by CEREP assay
[33] = Inhibition of sst receptor at 10 uM by CEREP assay
[34] = target: Muscarinic acetylcholine receptor M1 (Homo sapiens) (UniProt P11229); assay: Inhibition of human M1 receptor at 10 uM by CEREP assay
[35] = target: Neuropeptide Y receptor type 2 (Homo sapiens) (UniProt P49146); assay: Inhibition of human Y2 receptor at 10 uM by CEREP assay
[36] = target: MAO-A (amine oxidase [flavin-containing] A) (Homo sapiens, UniProt P21397); assay: Inhibition of human MAO-A at 10 uM by CEREP assay
[37] = target: Adenosine receptor A2a (Homo sapiens) (UniProt P29274); assay: Inhibition of human A2A receptor at 10 uM by CEREP assay
[38] = target: Androgen receptor (Homo sapiens) (UniProt P10275); assay: Inhibition of human androgen receptor at 10 uM by CEREP assay
[39] = Inhibition of GABA receptor at 10 uM by CEREP assay
[40] = target: Nociceptin receptor (Homo sapiens) (UniProt P41146); assay: Inhibition of human ORL1 receptor at 10 uM by CEREP assay
[41] = Inhibition of L-type Ca2+ channel DHP site at 10 uM by CEREP assay
[42] = target: Type-1 angiotensin II receptor (Homo sapiens) (UniProt P30556); assay: Inhibition of human AT1 receptor at 10 uM by CEREP assay
[43] = target: C-C chemokine receptor type 2 (Homo sapiens) (UniProt P41597); assay: Inhibition of human CCR2 receptor at 10 uM by CEREP assay

D(1B) dopamine receptor (Homo sapiens), sequence (P21918 whole entry): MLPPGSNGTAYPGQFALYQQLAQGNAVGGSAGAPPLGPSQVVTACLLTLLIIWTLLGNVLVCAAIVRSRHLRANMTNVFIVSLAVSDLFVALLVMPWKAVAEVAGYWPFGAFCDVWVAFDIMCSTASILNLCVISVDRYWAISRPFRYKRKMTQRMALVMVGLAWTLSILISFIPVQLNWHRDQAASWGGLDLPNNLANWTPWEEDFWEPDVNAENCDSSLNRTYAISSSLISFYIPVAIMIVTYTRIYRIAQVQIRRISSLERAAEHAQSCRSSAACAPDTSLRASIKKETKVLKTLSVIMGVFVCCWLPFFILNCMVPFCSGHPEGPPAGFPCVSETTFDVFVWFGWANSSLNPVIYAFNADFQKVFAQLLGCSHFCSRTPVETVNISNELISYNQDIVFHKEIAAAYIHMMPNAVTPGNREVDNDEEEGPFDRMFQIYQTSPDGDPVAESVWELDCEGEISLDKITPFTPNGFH
Neurotensin receptor type 1 (Homo sapiens), sequence (P30989 whole entry): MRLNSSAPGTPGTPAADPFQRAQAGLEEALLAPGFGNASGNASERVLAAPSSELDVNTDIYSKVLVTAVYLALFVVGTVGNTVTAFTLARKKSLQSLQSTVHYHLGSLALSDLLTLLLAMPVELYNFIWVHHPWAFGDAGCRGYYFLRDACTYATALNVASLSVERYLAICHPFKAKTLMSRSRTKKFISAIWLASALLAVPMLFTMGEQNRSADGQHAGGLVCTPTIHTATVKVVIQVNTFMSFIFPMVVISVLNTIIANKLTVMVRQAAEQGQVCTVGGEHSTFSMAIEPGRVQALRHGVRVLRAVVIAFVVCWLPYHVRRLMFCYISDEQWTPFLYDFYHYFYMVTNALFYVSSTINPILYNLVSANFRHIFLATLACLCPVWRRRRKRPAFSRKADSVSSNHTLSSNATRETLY
Muscarinic acetylcholine receptor M1 (Homo sapiens), sequence (P11229 whole entry): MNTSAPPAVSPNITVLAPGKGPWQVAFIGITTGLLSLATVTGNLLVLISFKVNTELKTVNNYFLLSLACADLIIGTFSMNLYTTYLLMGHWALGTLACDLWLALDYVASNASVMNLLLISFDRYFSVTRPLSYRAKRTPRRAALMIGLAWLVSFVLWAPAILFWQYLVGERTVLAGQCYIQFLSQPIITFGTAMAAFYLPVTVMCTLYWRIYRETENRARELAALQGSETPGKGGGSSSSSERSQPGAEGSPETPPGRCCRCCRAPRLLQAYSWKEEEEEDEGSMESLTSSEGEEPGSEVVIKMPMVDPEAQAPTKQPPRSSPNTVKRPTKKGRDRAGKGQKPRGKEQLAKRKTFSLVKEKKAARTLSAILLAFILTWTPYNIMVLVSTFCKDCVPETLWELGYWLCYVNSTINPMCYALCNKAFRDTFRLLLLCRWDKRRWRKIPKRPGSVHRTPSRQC
Neuropeptide Y receptor type 2 (Homo sapiens), sequence (P49146 whole entry): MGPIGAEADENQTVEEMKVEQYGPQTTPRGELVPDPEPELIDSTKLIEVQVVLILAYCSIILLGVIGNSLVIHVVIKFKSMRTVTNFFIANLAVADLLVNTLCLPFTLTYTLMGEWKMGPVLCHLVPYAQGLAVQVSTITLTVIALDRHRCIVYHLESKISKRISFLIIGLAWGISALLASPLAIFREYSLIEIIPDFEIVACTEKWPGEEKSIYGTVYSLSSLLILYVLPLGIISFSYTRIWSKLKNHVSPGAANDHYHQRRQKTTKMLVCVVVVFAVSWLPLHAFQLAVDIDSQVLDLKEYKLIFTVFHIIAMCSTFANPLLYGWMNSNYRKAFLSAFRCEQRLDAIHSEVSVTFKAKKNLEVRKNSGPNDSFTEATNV
B1 bradykinin receptor (Homo sapiens), sequence (P46663 whole entry): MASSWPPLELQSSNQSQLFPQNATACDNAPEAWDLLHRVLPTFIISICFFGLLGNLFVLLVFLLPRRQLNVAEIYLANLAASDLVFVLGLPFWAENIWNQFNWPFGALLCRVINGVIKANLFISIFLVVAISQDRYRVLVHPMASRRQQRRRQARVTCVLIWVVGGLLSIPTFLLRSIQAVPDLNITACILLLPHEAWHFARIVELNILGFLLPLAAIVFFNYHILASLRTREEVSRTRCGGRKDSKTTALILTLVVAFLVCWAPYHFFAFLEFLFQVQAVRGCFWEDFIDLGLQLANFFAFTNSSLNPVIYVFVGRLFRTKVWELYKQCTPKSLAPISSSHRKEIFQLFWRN
Cholecystokinin receptor type A (Homo sapiens), sequence (P32238 whole entry): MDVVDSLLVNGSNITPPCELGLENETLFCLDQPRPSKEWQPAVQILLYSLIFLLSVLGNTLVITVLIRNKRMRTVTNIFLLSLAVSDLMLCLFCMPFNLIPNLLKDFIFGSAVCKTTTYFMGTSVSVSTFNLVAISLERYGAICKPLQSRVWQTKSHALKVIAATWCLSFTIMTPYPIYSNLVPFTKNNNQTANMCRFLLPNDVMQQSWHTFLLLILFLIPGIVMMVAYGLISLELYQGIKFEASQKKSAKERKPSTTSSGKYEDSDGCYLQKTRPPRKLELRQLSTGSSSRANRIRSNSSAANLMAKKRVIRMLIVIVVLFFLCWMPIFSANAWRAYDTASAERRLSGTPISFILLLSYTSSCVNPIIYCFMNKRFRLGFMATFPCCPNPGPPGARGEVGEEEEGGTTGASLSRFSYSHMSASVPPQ
D(1A) dopamine receptor (Homo sapiens), sequence (P21728 whole entry): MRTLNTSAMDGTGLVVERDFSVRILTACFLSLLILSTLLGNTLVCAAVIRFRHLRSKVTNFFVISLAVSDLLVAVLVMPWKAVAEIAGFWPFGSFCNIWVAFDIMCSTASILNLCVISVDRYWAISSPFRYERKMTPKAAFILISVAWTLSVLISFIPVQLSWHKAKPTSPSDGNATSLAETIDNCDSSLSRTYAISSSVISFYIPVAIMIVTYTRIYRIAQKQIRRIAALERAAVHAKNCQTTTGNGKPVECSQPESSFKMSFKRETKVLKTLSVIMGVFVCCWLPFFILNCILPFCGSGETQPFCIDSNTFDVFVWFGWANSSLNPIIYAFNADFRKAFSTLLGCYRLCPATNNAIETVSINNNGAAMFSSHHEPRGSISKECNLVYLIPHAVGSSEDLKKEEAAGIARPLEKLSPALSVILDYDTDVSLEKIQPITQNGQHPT
Cannabinoid receptor 1 (Homo sapiens), sequence (P21554 whole entry): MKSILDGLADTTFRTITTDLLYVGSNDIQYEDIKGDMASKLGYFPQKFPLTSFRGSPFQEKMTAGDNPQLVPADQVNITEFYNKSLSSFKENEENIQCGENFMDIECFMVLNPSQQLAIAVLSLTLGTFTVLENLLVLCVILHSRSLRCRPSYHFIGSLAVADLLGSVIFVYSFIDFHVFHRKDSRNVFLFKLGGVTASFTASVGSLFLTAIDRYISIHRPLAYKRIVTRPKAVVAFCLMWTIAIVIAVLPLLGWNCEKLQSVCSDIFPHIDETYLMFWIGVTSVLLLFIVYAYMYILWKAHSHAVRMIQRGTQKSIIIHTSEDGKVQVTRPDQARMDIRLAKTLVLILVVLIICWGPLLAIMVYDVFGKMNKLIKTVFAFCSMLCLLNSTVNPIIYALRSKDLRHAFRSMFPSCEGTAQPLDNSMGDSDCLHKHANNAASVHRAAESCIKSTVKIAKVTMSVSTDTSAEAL
C-C chemokine receptor type 1 (Homo sapiens), sequence (P32246 whole entry): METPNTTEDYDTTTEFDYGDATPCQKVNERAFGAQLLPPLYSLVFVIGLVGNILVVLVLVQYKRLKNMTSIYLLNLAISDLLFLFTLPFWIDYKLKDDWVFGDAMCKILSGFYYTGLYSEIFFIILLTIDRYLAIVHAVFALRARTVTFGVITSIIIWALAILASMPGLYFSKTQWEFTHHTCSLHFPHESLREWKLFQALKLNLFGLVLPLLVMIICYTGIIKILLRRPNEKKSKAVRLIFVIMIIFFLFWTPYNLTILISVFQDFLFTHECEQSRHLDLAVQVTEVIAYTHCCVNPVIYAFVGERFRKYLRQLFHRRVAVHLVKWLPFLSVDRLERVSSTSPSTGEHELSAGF
Sodium-dependent dopamine transporter (Homo sapiens), sequence (Q01959 whole entry): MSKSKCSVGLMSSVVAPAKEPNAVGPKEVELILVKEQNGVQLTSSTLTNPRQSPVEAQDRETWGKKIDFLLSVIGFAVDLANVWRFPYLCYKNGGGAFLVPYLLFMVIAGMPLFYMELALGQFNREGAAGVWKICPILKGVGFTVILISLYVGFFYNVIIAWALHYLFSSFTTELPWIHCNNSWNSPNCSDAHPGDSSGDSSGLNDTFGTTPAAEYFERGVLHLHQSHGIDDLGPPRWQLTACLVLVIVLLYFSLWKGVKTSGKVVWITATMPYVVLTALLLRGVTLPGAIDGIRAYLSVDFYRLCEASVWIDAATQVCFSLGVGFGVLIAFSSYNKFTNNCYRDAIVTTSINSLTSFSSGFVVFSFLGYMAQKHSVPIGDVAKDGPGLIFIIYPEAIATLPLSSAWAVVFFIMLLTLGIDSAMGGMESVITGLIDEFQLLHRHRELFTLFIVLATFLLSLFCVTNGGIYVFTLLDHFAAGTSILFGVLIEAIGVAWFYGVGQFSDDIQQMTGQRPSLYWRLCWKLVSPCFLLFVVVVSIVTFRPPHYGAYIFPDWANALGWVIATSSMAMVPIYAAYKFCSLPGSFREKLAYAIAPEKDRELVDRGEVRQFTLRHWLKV
Motilin receptor (Homo sapiens), sequence (O43193 whole entry): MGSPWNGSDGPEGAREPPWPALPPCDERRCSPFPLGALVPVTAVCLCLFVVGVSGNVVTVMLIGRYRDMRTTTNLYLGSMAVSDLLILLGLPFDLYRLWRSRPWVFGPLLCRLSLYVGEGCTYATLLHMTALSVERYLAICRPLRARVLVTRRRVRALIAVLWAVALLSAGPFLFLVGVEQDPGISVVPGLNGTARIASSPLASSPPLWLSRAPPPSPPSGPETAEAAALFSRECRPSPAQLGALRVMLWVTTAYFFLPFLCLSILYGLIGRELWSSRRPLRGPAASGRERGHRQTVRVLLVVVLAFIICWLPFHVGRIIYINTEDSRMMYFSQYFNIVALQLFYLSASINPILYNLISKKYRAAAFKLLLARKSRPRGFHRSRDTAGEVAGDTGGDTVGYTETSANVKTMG

Compound `CCc1cccc(CC)c1Cc1ncc[nH]1` has an inhibition [1] of -7%, an inhibition [2] of 0% and an inhibition [3] of 5%. It also gave an inhibition [4] of 31%, an inhibition [5] of 19% and an inhibition (Homo sapiens) of 78%. The inhibition [6] was 7%, the inhibition [7] was 4% and the inhibition [8] was -3%. The inhibition [9] was -3%, the inhibition [10] was 10% and the inhibition [11] was 11%. The inhibition [12] was -6%, the inhibition [13] was 0% and the inhibition [14] was 17%. For the same compound, the inhibition [15] was 21%, the inhibition [16] was 0% and the inhibition [17] was 9%. The inhibition [18] was 45%, the inhibition [19] was 20% and the inhibition [20] was 7%. It also gave an inhibition [21] of 5%, an inhibition [22] of 18% and an inhibition [23] of -1%. It also gave an inhibition [24] of 54%, a Ratio Ki (CHL) of 100 and an inhibition [25] of -1%. The inhibition [26] was 4%, the inhibition [27] was 73% and the inhibition [28] was -5%. It also gave an inhibition [29] of 4%, an inhibition [30] of 17% and an inhibition [31] of 8%. It also gave an inhibition [32] of -1%, an inhibition [33] of -6% and an inhibition [34] of 24%. The inhibition [35] was 15%, the inhibition at 10 µM [36] was -4% and the inhibition [37] was -6%. The inhibition [38] was 2%, the inhibition [39] was -10% and the inhibition [40] was -3%. It also gave an inhibition [41] of 1%, an inhibition [42] of 2% and an inhibition [43] of 12%.
